Test results as given in patent US20200289514A1, “Novel Pyrazolo Pyrimidine Derivatives” (Novartis AG, priority 2015, published 2020).
pIC50: −log10 of the molar value. In brackets after ≈: the same amount, converted by molar mass. Where two headings read alike, the source gives them in different places.

How the values were obtained:
Human IL2 promoter = Human IL2 promoter reporter gene assay (RGA) in Jurkat cells; assay type: cell-based; details: Jurkat clone K22 290_H23, anti-CD28 mAb + PMA, 5.5 h
Procedure: Human IL2 Promoter Reporter Gene Assay (RGA) in Jurkat Cells
The transfected Jurkat clone K22 290_H23 was propagated in RPMI 1640 supplemented with 10% heat inactivated fetal calf serum, 50 μM 2-mercaptoethanol and 1 mg/ml Geneticin. The cell concentration should not exceed 1×10e6/ml during culturing. The cells should not exceed passage 30. Prior to the assay the cells were washed and prepared to the concentration of 2×10e6 cells/ml.
Compound dilutions were made as 2×-concentrated solutions then diluted ½ by addition to cells. Two hundred and fifty μl of compound dilution and 250 μl of cells were mixed together in wells of a 96-deep well plate. Cells/compounds premix were incubated 30 min at 37° C. and 5% CO2 directly in the deep well plate.
After pre-incubation of cells with compounds, cells were stimulated with anti-CD28 mAb (clone 15E8) at 3 μg/ml+PMA at 1 μg/ml. Both co-stimulants were diluted in culture medium at a 10×-concentrated solution. 10 μl of co-stimulants were pipetted into the white 96-well plates and 100 μl of cell/compound mix was immediately added in duplicates. The cells were stimulated for 5.5 h at 37° C. and 5% CO2.
After cell stimulation, 50 μl of BriteLitePlus reagent (Perkin Elmer) was added to each well and the bioluminescence was measured with a Wallac EnVision reader (Perkin Elmer).

[1] = Solubility in aqueous and biorelevant media; assay type: physicochemical
[2] = molecular target: T1, C-domain of MALT1 (amino acids 329-824) (Homo sapiens, UniProt Q9UDY8); experiment: MALT1 Biochemical Assay - Version 1 (fluorescence lifetime)
T1 sequence (Q9UDY8 329-824): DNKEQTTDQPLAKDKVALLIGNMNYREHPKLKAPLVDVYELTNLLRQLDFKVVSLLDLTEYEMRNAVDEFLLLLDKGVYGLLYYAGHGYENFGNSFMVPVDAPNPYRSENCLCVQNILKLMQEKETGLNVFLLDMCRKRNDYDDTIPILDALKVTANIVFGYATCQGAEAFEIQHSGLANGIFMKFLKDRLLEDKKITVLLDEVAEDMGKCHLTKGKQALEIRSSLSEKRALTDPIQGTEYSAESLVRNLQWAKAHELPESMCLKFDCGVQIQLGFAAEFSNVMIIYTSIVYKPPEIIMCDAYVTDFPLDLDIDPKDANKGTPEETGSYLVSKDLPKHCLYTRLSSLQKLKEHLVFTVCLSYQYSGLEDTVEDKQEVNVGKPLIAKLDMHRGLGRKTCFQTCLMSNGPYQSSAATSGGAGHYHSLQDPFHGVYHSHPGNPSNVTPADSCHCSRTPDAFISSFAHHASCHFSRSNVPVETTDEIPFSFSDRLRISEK
Procedure: The readout parameter is the increase of fluorescence lifetime over time, proportional to enzyme activity.
The assay employs a short peptide substrate labeled with the single fluorophore PT14 as a fluorescence lifetime probe sensitive to the cleavage state of the substrate (PT14: 6-(9-oxo-9H-acridin-10-yl)-hexanoate, AssayMetrics, UK). […] Test compounds were dissolved in 100% (v/v) DMSO or a mixture containing 90% (v/v) DMSO and 10% (v/v) H2O at a stock concentration of 100 mM. Serial dilutions of test compounds were prepared using either 100% (v/v) DMSO or a mixture containing 90% (v/v) DMSO and 10% (v/v) H2O.
where y is the %-inhibition at the inhibitor concentration, x. A1 is the lowest inhibition value, and A2 the maximum inhibition value. The exponent, p, is the Hill coefficient.

SMILES | pIC50 (Human IL2 promoter) | pIC50 [2] | other results
COCC(OC)c1c(NC(=O)Nc2cnc(-n3nccn3)c(C#N)c2)cnc2cc(Cl)nn12 (stereo not drawn) [Example 19, 1-(2-chloro-7-(1,2-dimethoxyethyl)pyrazolo [1,5-a]pyrimidin-6-yl)-3-(5-cyano-6-(2H-1,2,3-triazol-2-yl)pyridin-3-yl)urea] | 7.25 | 8.05 | 
COCC1(c2c(NC(=O)Nc3cncc(C#N)c3)cnc3cc(Cl)nn23)CC1 [Example 9, 1-(2-chloro-7-(1-(methoxymethyl)cyclopropyl)pyrazolo[1,5-a]pyrimidin-6-yl)-3-(5-cyanopyridin-3-yl)urea] | 7.03 | 7.54 | 
COCCOc1ncc(Cl)cc1NC(=O)Nc1cnc2cc(Cl)nn2c1[C@H](C)OC [Example 21, (S)-1-(5-chloro-2-(2-methoxyethoxy)pyridin-3-yl)-3-(2-chloro-7-(1-methoxyethyl)-pyrazolo[1,5-a]pyrimidin-6-yl)urea] | 7.33 | 8.05 | 
COCC1(c2c(NC(=O)Nc3ccnc(C#N)c3)cnc3cc(Cl)nn23)CC1 [Example 37, 1-(2-chloro-7-(1-(methoxymethyl)cyclopropyl)pyrazolo [1,5-a]pyrimidin-6-yl)-3-(2-cyanopyridin-4-yl)urea] | 7.24 | 7.60 | 
CO[C@@H](C)c1c(NC(=O)Nc2cncc(C#N)c2)cnc2cc(C)nn12 [Example 1, (S)-1-(5-cyanopyridin-3-yl)-3-(7-(1-methoxyethyl)-2-methylpyrazolo [1,5-a]pyrimidin-6-yl)urea] | 6.88 | 7.04 | solubility ([1]; 19.12 mM Sodium Maleate Fasted state simulated intestinal fluid (FaSSIF) pH 6.5, [pH] 6.63, read-out: Solubility (mg/mL) [pH]): 0.018 mg/mL (≈ 51.2 µM); solubility ([1]; FaSSIF pH 6.5, [pH] 6.56, read-out: Solubility (mg/mL) [pH]): 0.022 mg/mL (≈ 62.6 µM); solubility ([1]; Fed state intestinal fluid FeSSIF pH 5.8, [pH] 5.85, read-out: Solubility (mg/mL) [pH]): 0.027 mg/mL (≈ 76.8 µM); solubility ([1]; Simulated Gastric Fluid (SGF) pH 2.0, [pH] 2.00, read-out: Solubility (mg/mL) [pH]): 0.024 mg/mL (≈ 68.3 µM); solubility ([1]; Water, [pH] 7.65, read-out: Solubility (mg/mL) [pH]): 0.019 mg/mL (≈ 54.1 µM); solubility ([1]; aqueous buffer, 100 mM Sodium Acetate pH 4.0, [pH] 4.04, read-out: Solubility (mg/mL) [pH]): 0.019 mg/mL (≈ 54.1 µM); solubility ([1]; simulated gastric fluid, HCl/KCl pH 1.0, [pH] 1.10, read-out: Solubility (mg/mL) [pH]): 0.049 mg/mL (≈ 139 µM)
CO[C@@H](C)c1c(NC(=O)Nc2cncc(Cl)c2)cnc2cc(F)nn12 [Example 32, (S)-1-(5-chloro-pyridin-3-yl)-3-(2-fluoro-7-(1-methoxyethyl)pyrazolo [1,5-a]pyrimidin-6-yl)urea] | 7.40 | 7.96 | 
CO[C@@H](C)c1c(NC(=O)Nc2ccnc(C(F)F)c2)cnc2cc(F)nn12 [Example 2, (S)-1-(2-(difluoromethyl)pyridin-4-yl)-3-(2-fluoro-7-(1-methoxyethyl)pyrazolo[1,5-a]pyrimidin-6-yl)urea] | 7.33 | 7.74 | solubility ([1]; Free form, Fasted state simulated intestinal fluid FaSSIF (V2) pH 6.5, [pH] 6.64, read-out: Solubility mg/mL [pH] Free form): 0.041 mg/mL (≈ 108 µM); solubility ([1]; Free form, Fed state intestinal fluid FeSSIF (V2) pH 5.8, [pH] 5.85, read-out: Solubility mg/mL [pH] Free form): 0.093 mg/mL (≈ 245 µM); solubility ([1]; Free form, Simulated Gastric Fluid (SGF) pH 2.0, [pH] 1.99, read-out: Solubility mg/mL [pH] Free form): 0.338 mg/mL (≈ 889 µM); solubility ([1]; Free form, Water, [pH] 7.76, read-out: Solubility mg/mL [pH] Free form): 0.029 mg/mL (≈ 76.2 µM); solubility ([1]; aqueous buffer, Free form, 19.12 mM Sodium Maleate (blank FaSSIF) pH 6.5, [pH] 6.61, read-out: Solubility mg/mL [pH] Free form): 0.026 mg/mL (≈ 68.4 µM); solubility ([1]; aqueous buffer, Free form, 100 mM Sodium Acetate pH 4.0, [pH] 3.99, read-out: Solubility mg/mL [pH] Free form): 0.032 mg/mL (≈ 84.1 µM); solubility ([1]; simulated gastric fluid, Free form, HCl/KCl pH 1.0, [pH] 1.12, read-out: Solubility mg/mL [pH] Free form): > 2 mg/mL
CO[C@@H](C)c1c(NC(=O)Nc2cc(Cl)cnc2OC[C@H](C)N)cnc2cc(Cl)nn12 [Example 41, 1-(2-((S)-2-aminopropoxy)-5-chloropyridin-3-yl)-3-(2-chloro-7-((S)-1-methoxyethyl)pvrazolo[1,5-a]pyrimidin-6-yl)urea] | 7.30 | 7.68 | 
CC(=O)N1CC[C@@H](O[C@@H](C)c2c(NC(=O)Nc3cnc(-n4nccn4)c(Cl)c3)cnc3cc(Cl)nn23)C1 [Example 13, 1-(7-((S)-1-(((R)-1-acetylpyrrolidin-3-yl)oxy)ethyl)-2-chloropyrazolo[1,5-a]pyrimidin-6-yl)-3-(5-chloro-6-(2H-1,2,3-triazol-2-yl)pyridin-3-yl)urea] | 7.06 | 7.64 | 

Stronger by pIC50 (Human IL2 promoter), values ahead:

pIC50 (Human IL2 promoter) | pIC50 [2] | SMILES | other results
7.46 | 7.92 | CO[C@@H](C)c1c(NC(=O)Nc2cnc(C(=O)N(C)C)c(Cl)c2)cnc2cc(Cl)nn12 [Example 31, (S)-3-chloro-5-(3-(2-chloro-7-(1-methoxyethyl)pyrazolo [1,5-a]pyrimidin-6-yl)ureido)-N,N-dimethylpicolinamide] | 
7.55 | 8.15 | CNC(=O)c1ncc(NC(=O)Nc2cnc3cc(Cl)nn3c2[C@H](C)OC)cc1Cl [Example 34, (S)-3-chloro-5-(3-(2-chloro-7-(1-methoxyethyl)pyrazolo [1,5-a]pyrimidin-6-yl)ureido)-N-methylpicolinamide] | 
7.70 | 8.52 | COc1ncc(NC(=O)Nc2cnc3cc(Cl)nn3c2[C@H](C)OC)cc1C#N [Example 16, (S)-1-(2-chloro-7-(1-methoxyethyl)pyrazolo [1,5-a]pyrimidin-6-yl)-3-(5-cyano-6-methoxypyridin-3-yl)urea] | 
7.72 |  | CO[C@@H](C)c1c(NC(=O)Nc2cnc(-n3nccn3)c(Cl)c2)cnc2cc(Cl)nn12 [Example 5, (S)-1-(5-chloro-6-(2H-1,2,3-triazol-2-yl)pyridin-3-yl)-3-(2-chloro-7-(1-methoxyethyl)pyrazolo[1,5-a]pyrimidin-6-yl)urea] | solubility ([1]; Fasted state simulated intestinal fluid (FaSSIF), [pH] 6.59, read-out: Solubility (mg/mL) [pH]): 0.0044 mg/mL (≈ 9.82 µM); solubility ([1]; Fed state intestinal fluid (FeSSIF), [pH] 6.87, read-out: Solubility (mg/mL) [pH]): 0.0082 mg/mL (≈ 18.3 µM); solubility ([1]; Simulated Gastric Fluid (SGF), [pH] 2.55, read-out: Solubility (mg/mL) [pH]): 0.0168 mg/mL (≈ 37.5 µM); solubility ([1]; Water, [pH] 7.39, read-out: Solubility (mg/mL) [pH]): 0.005 mg/mL (≈ 11.2 µM); solubility ([1]; medium of pH 1.2 (composition not named), simulated gastric fluid, pH 1.2, [pH] 1.17, read-out: Solubility (mg/mL) [pH]): 0.0038 mg/mL (≈ 8.48 µM); solubility ([1]; medium of pH 3.0 (composition not named), aqueous buffer, pH 3.0, [pH] 3.14, read-out: Solubility (mg/mL) [pH]): 0.0052 mg/mL (≈ 11.6 µM); solubility ([1]; medium of pH 4.7 (composition not named), aqueous buffer, pH 4.7, [pH] 4.71, read-out: Solubility (mg/mL) [pH]): 0.0048 mg/mL (≈ 10.7 µM); solubility ([1]; medium of pH 7.4 (composition not named), aqueous buffer, pH 7.4, [pH] 7.34, read-out: Solubility (mg/mL) [pH]): 0.004 mg/mL (≈ 8.92 µM); solubility ([1]; medium of pH 9.0 (composition not named), aqueous buffer, pH 9.0, [pH] 8.09, read-out: Solubility (mg/mL) [pH]): 0.0055 mg/mL (≈ 12.3 µM)
7.92 | 8.70 | CO[C@@H](C)c1c(NC(=O)Nc2cnc(-n3nccn3)c(C#N)c2)cnc2cc(Cl)nn12 [Example 11, (S)-1-(2-chloro-7-(1-methoxyethyl)pyrazolo[1,5-a]pyrimidin-6-yl)-3-(5-cyano-6-(2H-1,2,3-triazol-2-yl)pyridin-3-yl)urea] | 
7.92 | 8.05 | CO[C@H](c1c(NC(=O)Nc2cnc(-n3nccn3)c(C#N)c2)cnc2cc(C)nn12)C(C)C [Example 15, (S)-1-(5-cyano-6-(2H-1,2,3-triazol-2-yl)pyridin-3-yl)-3-(7-(1-methoxy-2-methylpropyl)-2-methylpyrazolo[1,5-a]pyrimidin-6-yl)urea] | 
8.22 | 8.52 | CO[C@H](c1c(NC(=O)Nc2cnc(-n3nccn3)c(Cl)c2)cnc2cc(F)nn12)C(C)C [Example 14, (S)-1-(5-chloro-6-(2H-1,2,3-triazol-2-yl)pyridin-3-yl)-3-(2-fluoro-7-(1-methoxy-2-methylpropyl)pyrazolo [1,5-a]pyrimidin-6-yl)urea] | 
